Laboratory results from patent publication US8426394B2, “Progesterone antagonists such as CDB-4124 in the treatment of endometriosis, uterine fibroids, dysmenorrhea, breast cancer, etc” (Repros Therapeutics Inc., priority 2008, dated 2013).

Columns and labels:
opiate μ receptor (MOP) = opiate μ receptor (MOP) (Homo sapiens, UniProt P35372); test: Affinity for and inhibition of opiate μ receptor; type: binding
[1] = molecular target: T1, glucocorticoid receptor (rbGR) (Oryctolagus cuniculus, UniProt P59667); test: Glucocorticoid receptor binding / anti-glucocorticoid receptor activity; design: species or system rabbit
T1 construct: cytosol containing PR or GR were prepared in TEGMD buffer; from tissue; host or cells: thymus of estradiol-primed immature rabbits (cytosol)
T1 sequence (P59667 1-772): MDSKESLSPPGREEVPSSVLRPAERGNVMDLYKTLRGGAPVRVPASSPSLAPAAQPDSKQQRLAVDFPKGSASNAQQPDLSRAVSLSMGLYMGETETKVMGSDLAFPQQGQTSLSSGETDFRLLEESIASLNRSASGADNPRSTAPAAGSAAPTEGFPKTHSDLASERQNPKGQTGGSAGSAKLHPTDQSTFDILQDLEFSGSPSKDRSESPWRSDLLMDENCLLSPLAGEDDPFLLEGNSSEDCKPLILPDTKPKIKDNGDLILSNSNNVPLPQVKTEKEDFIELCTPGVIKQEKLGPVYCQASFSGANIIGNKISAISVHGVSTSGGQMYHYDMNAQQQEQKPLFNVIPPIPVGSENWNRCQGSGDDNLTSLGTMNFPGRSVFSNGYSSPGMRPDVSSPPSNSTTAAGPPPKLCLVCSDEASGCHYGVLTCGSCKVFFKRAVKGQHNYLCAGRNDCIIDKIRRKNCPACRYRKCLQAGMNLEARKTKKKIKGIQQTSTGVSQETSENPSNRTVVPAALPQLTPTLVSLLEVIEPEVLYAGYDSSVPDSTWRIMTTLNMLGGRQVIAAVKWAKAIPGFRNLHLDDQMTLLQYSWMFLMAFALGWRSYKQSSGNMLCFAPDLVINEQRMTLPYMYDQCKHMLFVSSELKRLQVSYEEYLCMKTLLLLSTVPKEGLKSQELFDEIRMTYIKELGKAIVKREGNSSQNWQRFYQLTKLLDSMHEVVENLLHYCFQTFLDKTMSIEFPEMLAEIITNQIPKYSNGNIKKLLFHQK
Description: Certain antiprogestins were tested in receptor-binding assays for their ability to bind rabbit progesterone receptor (rbPR) and glucocorticoid receptor (rbGR). […] For PR binding, the cytosol was incubated with 6 nM 1,2-[^3H]progesterone (50.0 Ci/mmole) and competitors were added at concentrations from 2 to 100 nM. For binding to GR, the cytosol was incubated with 6 nM 6,7-[^3H]-dexamethasone (40 Ci/mmol) and test compounds were added at concentrations from 20 to 100 nM. After overnight incubation at 4 C, bound and unbound [^3H] steroids were separated by addition of dextran-coated charcoal and centrifugation at 2100×g for 15 min at 4 C. Supernatants containing the [3H]-steroid receptor complexes were decanted into vials containing 4 ml Optifluor (Packard Instrument Co.), vortexed, equilibrated in a liquid scintillation counter for 30 minutes and then counted for 2 minutes. […] The standards for the PR and GR assays were unlabeled progesterone and dexamethasone, respectively.

Chain of opiate μ receptor (MOP) (P35372 whole entry): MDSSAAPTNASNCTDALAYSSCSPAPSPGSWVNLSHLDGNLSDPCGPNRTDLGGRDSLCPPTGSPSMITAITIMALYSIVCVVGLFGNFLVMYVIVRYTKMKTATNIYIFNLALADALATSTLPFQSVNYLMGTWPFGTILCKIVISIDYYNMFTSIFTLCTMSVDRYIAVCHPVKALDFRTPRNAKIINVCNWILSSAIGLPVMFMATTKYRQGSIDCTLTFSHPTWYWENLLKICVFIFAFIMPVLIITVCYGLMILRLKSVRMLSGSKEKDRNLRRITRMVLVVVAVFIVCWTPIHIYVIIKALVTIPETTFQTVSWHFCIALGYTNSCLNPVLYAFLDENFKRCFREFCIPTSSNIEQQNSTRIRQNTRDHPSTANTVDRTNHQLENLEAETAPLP

SMILES: COCC(=O)[C@@]1(OC(C)=O)CC[C@H]2[C@@H]3CCC4=CC(=O)CCC4=C3[C@@H](c3ccc(N(C)C)cc3)C[C@@]21C [CDB-4124, 21-methoxy-17α-acetoxy-11β-(4 N,N-dimethylaminophenyl)-19-norpregna-4,9-diene-3,20-dione]
- affinity for / inhibition of the opiate μ receptor (MOP) (opiate μ receptor (MOP)): has affinity for and can inhibit
- anti-glucocorticoid receptor activity / glucocorticoid receptor binding [1]: minimal
